Here are results for four molecules from patent US11395847B2, “Acylated GLP-1/GLP-2 dual agonists” (Zealand Pharma A/S, priority 2016, dated 2022).

Data set [1] is described as follows: Solubility assessment (turbidity absorbance at 325 nm). It counts as physicochemical. The essentials:
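Peptide stock at 2 mg/ml in water at pH 2.5 diluted 1:1 into 100 mM acetate (pH 4.0, 5.0), histidine (pH 6.0, 7.0) or phosphate (pH 6.0, 7.0, 7.5) buffer. Absorbance at 280 and 325 nm read at ambient temperature (typically 25 °C), single samples (n=1).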

Data set [2] is described as follows: Chemical stability (RP-HPLC normalized purity after incubation at 40° C.). Particulars: 14-day incubation, 0.2 mg/ml, normalized purity (area-%); for pH 6 normalized stability: pH 6, 40° C.; for pH 7 normalized stability: pH 7, 40° C. It counts as physicochemical. The essentials: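 Peptide at 0.2 mg/ml final in water adjusted to pH 6, 7, 7.5 or 9, incubated at 40° C for 14 days. Purity measured as main-peak area-% by C18 RP-HPLC (acetonitrile/TFA/water gradient, UV 220 nm) and normalized to T=0 set at 100 for each pH.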

A further data set addresses T1, human GLP-2 receptor (Homo sapiens, UniProt O95838, D470N).
T1 construct: expressed in transfected cells
T1 sequence (O95838 1-553 D470N): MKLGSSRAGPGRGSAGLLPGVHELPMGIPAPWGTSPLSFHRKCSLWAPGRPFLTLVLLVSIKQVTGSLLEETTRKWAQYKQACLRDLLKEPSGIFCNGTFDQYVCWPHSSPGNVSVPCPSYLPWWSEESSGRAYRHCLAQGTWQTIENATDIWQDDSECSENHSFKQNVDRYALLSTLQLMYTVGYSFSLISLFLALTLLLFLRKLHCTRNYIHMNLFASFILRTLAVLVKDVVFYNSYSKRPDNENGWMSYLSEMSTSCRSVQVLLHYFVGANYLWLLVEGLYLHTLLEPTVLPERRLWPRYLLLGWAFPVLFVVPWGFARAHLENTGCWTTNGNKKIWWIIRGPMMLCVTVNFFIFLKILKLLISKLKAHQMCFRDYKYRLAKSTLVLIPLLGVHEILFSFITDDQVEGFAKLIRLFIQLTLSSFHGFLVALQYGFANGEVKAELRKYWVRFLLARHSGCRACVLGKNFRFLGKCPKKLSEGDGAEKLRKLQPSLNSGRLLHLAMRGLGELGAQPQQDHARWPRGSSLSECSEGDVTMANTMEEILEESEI
Briefly: GLP-2 receptor potency assay (cAMP ALPHASCREEN, HEK293 cells stably expressing GLP-2 R). Particulars: cAMP response, HEK293 cells expressing human GLP-2 R; read-out: EC50 GLP-2. The class given is cell-based. The essentials:
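HEK293 clones stably transfected with the human GLP-2 receptor, selected with G418, were used. Intracellular cAMP was quantified by AlphaScreen. Responses were normalised to positive and vehicle controls, and EC50 and maximal response were taken from concentration-response curves.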
On the technique in general: Alpha assays give light when donor and acceptor beads are brought close together.

In the next data set the target is T2, human GLP-1 receptor (Homo sapiens, UniProt P43220).
T2 construct: expressed in transfected cells
Briefly: GLP-1 receptor potency assay (cAMP ALPHASCREEN, HEK293 cells stably expressing GLP-1 R). The class given is cell-based. The note with it: cAMP response, HEK293 cells expressing human GLP-1 R. The text has this: One useful in vitro assay for measuring GLP-1 and GLP-2 receptor activity is quantitation of cAMP, i.e. 3′-5′-cyclic adenosine monophosphate, which is a second messenger essential in many biological processes, and one of the most ubiquitous mechanisms for regulating cellular functions.
The cDNA encoding the human glucagon-like peptide 1 receptor (GLP-1 R) (primary accession number P43220) was cloned from the cDNA BC112126 (MGC:138331/IMAGE:8327594). The DNA encoding the GLP-1-R was amplified by PCR using primers encoding terminal restriction sites for subcloning. The 5′-end primers additionally encoded a near Kozak consensus sequence to ensure efficient translation. […] The PCR products encoding the GLP-1-R were subcloned into a mammalian expression vector containing a neomycin (G418) resistance marker. The mammalian expression vectors encoding the GLP-1-R were transfected into HEK293 cells by a standard calcium phosphate transfection method. 48 hours post-transfection, cells were seeded for limited dilution cloning and selected with 1 mg/ml G418 in the culture medium. Following 3 weeks in G418 selection clones were picked and tested in a functional GLP-1 receptor potency assay as described below.
The cAMP ALPHASCREEN® assay from Perkin Elmer was used to quantitate the cAMP response to activation of the GLP1 and GLP2 receptor, respectively. […] Data from test compounds eliciting an increase in the intracellular level of cAMP were normalized relative to the positive and negative control (vehicle) to calculate the EC50 and maximal response from the concentration response curve.

[3] abbreviates: 100 mM acetate buffer pH 4.0, ambient temperature, read-out: Solubility Acetate buffer pH 4.
Where [4] appears, read: 100 mM acetate buffer pH 5.0, ambient temperature, read-out: Solubility Acetate buffer pH 5.
The mark [5] stands for this setting: 100 mM histidine buffer pH 6.0, ambient temperature, read-out: Solubility Histidine buffer pH 6.
The mark [6] stands for this setting: 100 mM histidine buffer pH 7.0, ambient temperature, read-out: Solubility Histidine buffer pH 7.
The mark [7] stands for this setting: 100 mM phosphate buffer pH 6.0, ambient temperature, read-out: Solubility Phosphate buffer pH 6.
Where [8] appears, read: 100 mM phosphate buffer pH 7.0, ambient temperature, read-out: Solubility Phosphate buffer pH 7.
[9] abbreviates: 100 mM phosphate buffer pH 7.5, ambient temperature, read-out: Solubility Phosphate buffer pH 7.5.

Where two headings read alike, the source gives them in different places. Where a SMILES comes first, the peptide text is derived from it. [ ]: non-standard residue; d: D form. The star is where a group is joined. Stearoyl = CCCCCCCCCCCCCCCCCC(=O)*; Aib = CC(C)(N)C(=O)O Bounds are passed on as bounds.

T2 sequence (P43220 24-463): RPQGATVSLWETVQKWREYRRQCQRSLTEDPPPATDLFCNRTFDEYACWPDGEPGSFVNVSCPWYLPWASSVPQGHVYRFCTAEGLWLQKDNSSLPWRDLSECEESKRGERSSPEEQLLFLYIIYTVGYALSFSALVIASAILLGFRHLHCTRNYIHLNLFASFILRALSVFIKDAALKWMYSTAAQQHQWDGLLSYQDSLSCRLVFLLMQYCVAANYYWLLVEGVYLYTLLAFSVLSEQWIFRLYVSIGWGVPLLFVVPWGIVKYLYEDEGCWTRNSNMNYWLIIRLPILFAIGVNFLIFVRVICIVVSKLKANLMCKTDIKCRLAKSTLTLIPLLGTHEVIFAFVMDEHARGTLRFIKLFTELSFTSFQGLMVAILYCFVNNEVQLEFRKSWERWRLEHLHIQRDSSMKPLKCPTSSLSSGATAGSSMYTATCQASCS

In the case of `CC[C@H](C)[C@H](NC(=O)[C@H](CC(C)C)NC(=O)[C@H](Cc1c[nH]c2ccccc12)NC(=O)[C@H](C)NC(=O)[C@@H](NC(=O)[C@H](Cc1ccccc1)NC(=O)[C@H](CC(=O)O)NC(=O)[C@H](CCCNC(=N)N)NC(=O)[C@H](C)NC(=O)[C@H](C)NC(=O)[C@H](CCC(N)=O)NC(=O)[C@H](CCCCNC(=O)CC[C@H](NC(=O)CCCCCCCCCCCCCCCCC(=O)O)C(=O)O)NC(=O)[C@H](CC(=O)O)NC(=O)[C@H](CC(C)C)NC(=O)[C@@H](NC(=O)[C@@H](NC(=O)[C@H](C)NC(=O)[C@H](CC(C)C)NC(=O)[C@H](CCC(=O)O)NC(=O)[C@H](CO)NC(=O)[C@@H](NC(=O)[C@H](Cc1ccccc1)NC(=O)[C@H](CO)NC(=O)CNC(=O)[C@H](CCC(=O)O)NC(=O)C(C)(C)NC(=O)[C@@H](N)Cc1c[nH]cn1)[C@@H](C)O)[C@@H](C)O)[C@@H](C)CC)[C@@H](C)CC)C(=O)N[C@@H](C)C(=O)N[C@@H](Cc1c[nH]cn1)C(=O)N[C@@H](CCCCN)C(=O)N[C@H](C(=O)N[C@H](C(=O)N[C@@H](CC(=O)O)C(=O)O)[C@@H](C)O)[C@@H](C)CC` [Compound 22] (HELM PEPTIDE1{H.[Aib].E.G.S.F.T.S.E.L.A.T.I.L.D.K.Q.A.A.R.D.F.I.A.W.L.I.A.H.K.I.T.D}|PEPTIDE2{[O=C(O)CCCCCCCCCCCCCCCCC(=O)[*:2]].[gGlu]}$PEPTIDE1,PEPTIDE2,16:R3-2:R2$$$V2.0), the solubility is less than 1000 µg/mL in data set [1] (setting [3]); less than 1000 µg/mL in data set [1] (setting [4]); not below 1000 µg/mL in data set [1] (setting [5]); not below 1000 µg/mL in data set [1] (setting [6]); not below 1000 µg/mL in data set [1] (setting [7]); not below 1000 µg/mL in data set [1] (setting [8]). Moreover, the solubility in data set [1] (setting [9]) is not below 1000 µg/mL. Also, in data set [2], the “pH 6 normalized stability” value is given as “A (>90% normalised stability)”. For the same molecule, in data set [2], the “pH 7 normalized stability” value was “B (>80% stability)”. For the same molecule, the EC50 on human GLP-2 receptor stood at 0.2 nM.
`CCCCCCCCCCCCCCCCCC(=O)NCCCC[C@H](NC(=O)[C@H](CC(=O)O)NC(=O)[C@H](CC(C)C)NC(=O)[C@@H](NC(=O)[C@@H](NC(=O)[C@H](C)NC(=O)[C@H](CC(C)C)NC(=O)[C@H](CCC(=O)O)NC(=O)[C@H](CO)NC(=O)[C@@H](NC(=O)[C@H](Cc1ccccc1)NC(=O)[C@H](CO)NC(=O)CNC(=O)[C@H](CCC(=O)O)NC(=O)C(C)(C)NC(=O)[C@@H](N)Cc1c[nH]cn1)[C@@H](C)O)[C@@H](C)O)[C@@H](C)CC)C(=O)N[C@@H](CCC(N)=O)C(=O)N[C@@H](C)C(=O)N[C@@H](C)C(=O)N[C@@H](CCCNC(=N)N)C(=O)N[C@@H](CC(=O)O)C(=O)N[C@@H](Cc1ccccc1)C(=O)N[C@H](C(=O)N[C@@H](C)C(=O)N[C@@H](Cc1c[nH]c2ccccc12)C(=O)N[C@@H](CC(C)C)C(=O)N[C@H](C(=O)N[C@@H](CCC(N)=O)C(=O)N[C@@H](Cc1ccc(O)cc1)C(=O)N[C@@H](CCCCN)C(=O)N[C@H](C(=O)N[C@H](C(=O)N[C@@H](CC(=O)O)C(=O)O)[C@@H](C)O)[C@@H](C)CC)[C@@H](C)CC)[C@@H](C)CC` [Compound 36] (H-H[Aib]EGSFTSELATILDK(Stearoyl)QAARDFIAWLIQYKITD-OH): the EC50 at human GLP-1 receptor came to 0.32 nM.
`CC[C@H](C)[C@H](NC(=O)[C@H](Cc1ccccc1)NC(=O)[C@H](CC(=O)O)NC(=O)[C@H](CCCNC(=N)N)NC(=O)[C@H](C)NC(=O)[C@H](C)NC(=O)[C@H](CCC(N)=O)NC(=O)[C@H](CCCCNC(=O)CC[C@H](NC(=O)CCCCCCCCCCCCCCCCC(=O)O)C(=O)O)NC(=O)[C@H](CC(=O)O)NC(=O)[C@H](CC(C)C)NC(=O)[C@@H](NC(=O)[C@@H](NC(=O)[C@H](C)NC(=O)[C@H](CC(C)C)NC(=O)[C@H](CCC(=O)O)NC(=O)[C@H](CO)NC(=O)[C@@H](NC(=O)[C@H](Cc1ccccc1)NC(=O)[C@@H](NC(=O)CNC(=O)[C@H](CCC(=O)O)NC(=O)C(C)(C)NC(=O)[C@@H](N)Cc1c[nH]cn1)[C@@H](C)O)[C@@H](C)O)[C@@H](C)O)[C@@H](C)CC)C(=O)N[C@@H](C)C(=O)N[C@@H](Cc1c[nH]c2ccccc12)C(=O)N[C@@H](CC(C)C)C(=O)N[C@H](C(=O)N[C@@H](CCC(=O)O)C(=O)N[C@@H](Cc1c[nH]cn1)C(=O)N[C@@H](CCCCN)C(=O)N[C@H](C(=O)N[C@H](C(=O)N[C@@H](CC(=O)O)C(=O)O)[C@@H](C)O)[C@@H](C)CC)[C@@H](C)CC` [Compound 25] (HELM PEPTIDE1{H.[Aib].E.G.T.F.T.S.E.L.A.T.I.L.D.K.Q.A.A.R.D.F.I.A.W.L.I.E.H.K.I.T.D}|PEPTIDE2{[O=C(O)CCCCCCCCCCCCCCCCC(=O)[*:2]].[gGlu]}$PEPTIDE1,PEPTIDE2,16:R3-2:R2$$$V2.0): the solubility in data set [1] (setting [3]) was less than 1000 µg/mL; in data set [1] (setting [4]), less than 1000 µg/mL; in data set [1] (setting [5]), not below 1000 µg/mL; in data set [1] (setting [6]), not below 1000 µg/mL; in data set [1] (setting [7]), not below 1000 µg/mL; in data set [1] (setting [8]), not below 1000 µg/mL. Further, the solubility in data set [1] (setting [9]) is not below 1000 µg/mL. Further, in data set [2], the “pH 7 normalized stability” value is “A (>90% normalised stability)”. Also, the EC50 at human GLP-2 receptor is 0.33 nM.
`CC[C@H](C)[C@H](NC(=O)[C@H](Cc1ccccc1)NC(=O)[C@H](CC(=O)O)NC(=O)[C@H](CCCNC(=N)N)NC(=O)[C@H](C)NC(=O)[C@H](C)NC(=O)[C@H](CCC(N)=O)NC(=O)[C@H](CCCCNC(=O)CC[C@H](NC(=O)CCCCCCCCCCCCCCCCC(=O)O)C(=O)O)NC(=O)[C@H](CC(=O)O)NC(=O)[C@H](CC(C)C)NC(=O)[C@@H](NC(=O)[C@@H](NC(=O)[C@H](C)NC(=O)[C@H](CC(C)C)NC(=O)[C@H](CCC(=O)O)NC(=O)[C@H](CO)NC(=O)[C@@H](NC(=O)[C@H](Cc1ccccc1)NC(=O)[C@H](CO)NC(=O)CNC(=O)[C@H](CCC(=O)O)NC(=O)C(C)(C)NC(=O)[C@@H](N)Cc1c[nH]cn1)[C@@H](C)O)[C@@H](C)O)[C@@H](C)CC)C(=O)N[C@@H](C)C(=O)N[C@@H](Cc1c[nH]c2ccccc12)C(=O)N[C@@H](CC(C)C)C(=O)N[C@H](C(=O)N[C@@H](CCC(=O)O)C(=O)N[C@@H](Cc1c[nH]cn1)C(=O)N[C@@H](CCCCN)C(=O)N[C@H](C(=O)N[C@H](C(=O)N[C@@H](CC(=O)O)C(=O)O)[C@@H](C)O)[C@@H](C)CC)[C@@H](C)CC` [Compound 24] (HELM PEPTIDE1{H.[Aib].E.G.S.F.T.S.E.L.A.T.I.L.D.K.Q.A.A.R.D.F.I.A.W.L.I.E.H.K.I.T.D}|PEPTIDE2{[O=C(O)CCCCCCCCCCCCCCCCC(=O)[*:2]].[gGlu]}$PEPTIDE1,PEPTIDE2,16:R3-2:R2$$$V2.0): the solubility in data set [1] (setting [3]) is less than 1000 µg/mL; in data set [1] (setting [4]), less than 1000 µg/mL; in data set [1] (setting [5]), not below 1000 µg/mL; in data set [1] (setting [6]) it was not below 1000 µg/mL; in data set [1] (setting [7]), not below 1000 µg/mL; in data set [1] (setting [8]), not below 1000 µg/mL. Moreover, the solubility in data set [1] (setting [9]) is not below 1000 µg/mL. Moreover, in data set [2], the “pH 6 normalized stability” value is “B (>80% stability)”. Moreover, the “pH 7 normalized stability” value in data set [2] is listed as “A (>90% normalised stability)”. On human GLP-2 receptor, the concentration for a half-maximal effect (EC50) is 0.17 nM.

By solubility is commonly meant the concentration that dissolves in the medium under given conditions. As a reminder, the EC50 is the concentration that produces a half-maximal response.
